For data set [1], the system named is HT29 spheroids. Nature of the data set: Spheroid growth, HT29. The class given is cell-based, human. Particulars: 10 µM, 96 h treatment. Here is the method: (§1) For growing multicellular tumor spheroids, 400 HCT116, 400 HT29 or 800 MCF-7 cells per well were plated into round-bottom ultra-low attachment 96-well plates (Corning, Glendale, AZ, USA) in the media described above and incubated at 37 °C for 96 h. Spheroids were treated with 10 µM of the two most cytotoxic compounds 3 and 4 for another 96 h. The diameters of the spheroids were measured with Cell^F software under a CKX41 Olympus microscope before treatment and in constant daily intervals over the 96 h treatment period. For statistical analysis the t-test with Welsh’s correction was implemented in GraphPad Prism software (Version 6.01).

Data set [2] relates to HCT116 spheroids. Nature of the data set: KI67 immunofluorescence staining of cryo-sectioned spheroids. The class given is cell-based, human. Particulars: 72 h; for KI67+ cells: untreated control 38.1 ± 7.3 %. The protocol:
Spheroids were grown and cryosectioned, as described in the section above. For immunofluorescence staining the samples were fixed with 4% PFA (in PBS) for 15 min. The slides were washed with PBS before permeabilization with 0.1% Triton-X (Sigma-Aldrich, Steinheim, Germany) for 10 min. After three times washing with PBS the samples were stained for 45 min with 10% goat serum (G9023, Sigma-Aldrich) und 5% BSA for avoiding non-specific antibody binding. After one washing step a primary antibody against Ki67 (#9129, Cell Signaling Technology) was applied and samples incubated overnight at 4 °C. On the next day, slides were washed with PBS and incubated with goat anti-rabbit Alexa Fluor 594 (#8889 Cell Signaling Technology) for 1 h at room temperature in the dark, followed by two washing steps with PBS. Slides were mounted with ProlonGold Antifade Reagent with DAPI (Invitrogen, Thermo Fisher) and analyzed with a confocal laser scanning microscope Zeiss LSM800 (Zeiss, Jena, Germany). Images were processed with Zen software (Zeiss). For fluorescence signal intensities data extraction ImageJ/Fiji1.46 was used. For quantification, the maximum signal intensity of the KI67^+ cells was evaluated relative to the untreated control. For statistical analysis the t-test with Welsh’s correction was implemented in GraphPad Prism software (Version 6.01).

For data set [3], the system named is HCT116 spheroids. Nature of the data set: Spheroid growth, HCT116. The class given is cell-based, human. Particulars: 10 µM, 96 h treatment. The protocol: as §1
Data set [4] relates to pUC19 plasmid. In words: Electrophoretic dsDNA plasmid assay. The class given is biochemical. Particulars: 50 µM, up to 6 h, 37 °C. Here is the method: An amount of 400 ng of the pUC19 plasmid (2686 bp, New England Biolabs, Ipswich, MA, USA) was incubated with the test compounds (50 µM). Stock solutions of the test compounds were prepared in MilliQ water. The samples were incubated for different intervals (15 min to 6 h) with continuous shaking at 37 °C. Following the incubation time, 4 µL aliquots of 6 × DNA loading dye (Thermo Fisher, Kandel, Germany) were added to the 20 µL DNA samples. Electrophoresis was performed in a 1% agarose gel in 1 × TBE buffer, started at 60 V for 5 min and continued at 120 V for 90 min. Ethidium bromide (EtBr, Serva Electrophoresis GmbH, Heidelberg, Germany) staining was conducted in 1 × TBE (0.75 µg/mL) for 20 min. Images were taken by the GelDoc Imaging System Fusion F×7 (Vilber Lourmat, Eberhardzell, Germany). For quantification ImageJ/Fiji1.46 was used.

Data set [5] relates to MCF-7 spheroids. In words: Spheroid growth, MCF-7. The class given is cell-based, human. To be noted: 10 µM, 96 h treatment. The protocol: as §1
Data set [6] is described as follows: Cell-free DCF fluorescence quenching assay. The protocol:
To verify interactions of complex 4 with the fluorescence of DCF (2′,7′-dichlorofluorescein, Sigma-Aldrich), a fluorescence quenching assay was performed. For this purpose, DCF was dissolved in abs. ethanol (Sigma-Aldrich), diluted in phenol-red-free MEM (1% FBS) to 5 µM and complex 4 dissolved in DMF, diluted to 20 and 200 µM in the same medium. Furthermore, two combinations of 5 µM DCF with 20 and 200 µM of complex 4 were prepared. The fluorescence intensity of the substances alone and their combinations were measured (excitation: 485/20 nm, emission: 516/20 nm) in 10 min intervals with the Synergy HT reader (BioTek) over 2 h.

Data set [7] relates to MCF-7 cells. Particulars: 200 µM.
Data set [8] concerns HT29 cells. Particulars: 200 µM.

SMILES strings stand for the structures.

On to `F[P-](F)(F)(F)(F)F.O=c1c([O-])c(-c2ccc(Cl)cc2)oc2ccccc12.[W+4].c1cc[cH-]c1.c1cc[cH-]c1` [Compound 3, Bis(η^5-cyclopentadienyl)[2-(4-chlorophenyl)-3-(oxo-κO)-4(H)-chromen-4-oato-κO]tungsten(IV) hexafluorophosphate], for which the spheroid growth result is “completely stop spheroid growth” in data set [1], “markedly reduced growth” in data set [3] and “completely stop spheroid growth” in data set [5]. Besides, the “reduction in number of KI67+ cells relative to untreated control” value in data set [2] (20 µM) came out at 2.4 fold. The “KI67+ cells” value in data set [2] (20 µM) came out at 15.8 ± 2.8%. Also, in data set [4], the “interaction with plasmid dsDNA” value is recorded as “showing the ability to induce DNA nicks”.
Regarding `F[P-](F)(F)(F)(F)F.[O-]c1c(-c2ccc(Cl)cc2)oc2ccccc2c1=S.[W+4].c1cc[cH-]c1.c1cc[cH-]c1` [Compound 4, Bis(η^5-cyclopentadienyl)[2-(4-chlorophenyl)-3-(oxo-κO)-4(H)-chromen-4-thionato-κS]tungsten(IV) hexafluorophosphate], the spheroid growth entry is “completely stop spheroid growth” in data set [1], “completely stopped spheroid growth” in data set [3] and “completely stop spheroid growth” in data set [5]. Moreover, the “reduction in number of KI67+ cells relative to untreated control” value in data set [2] (15 µM) turned out to be 2 fold. Further, the “KI67+ cells” value in data set [2] (15 µM) is given as 19.1 ± 1.3%. The “lower fluorescence intensity relative to DCF (5 µM) alone” value was determined as 36.8% in data set [6] (DCF 5 µM + complex 20 µM) and 77.2% in data set [6] (DCF 5 µM + complex 200 µM).
With `F[P-](F)(F)(F)(F)F.O=C([O-])c1ccccn1.[W+4].c1cc[cH-]c1.c1cc[cH-]c1` [Compound 5, Bis(η^5-cyclopentadienyl)[2-(carboxylato-κO)-pyridine-κN]tungsten(IV) hexafluorophosphate], the results for the “viable cells [%] AV- / PI-” value in data set [7] and in data set [8] were 86.6 ± 7.6% and 91.5 ± 8.9%, respectively.
As to `Cc1cc(=S)c([O-])co1.F[P-](F)(F)(F)(F)F.[W+4].c1cc[cH-]c1.c1cc[cH-]c1` [Compound 8, Bis(η^5-cyclopentadienyl)[2-methyl-5-(oxo-κO)-pyran-4-(1H)-thionato-κS] tungsten(IV) hexafluorophosphate], the “single-strand breaks (sc form to oc form)” value in data set [4] turned out to be 15 ± 2%.

Source of the values: publication PMC10384408, “Anticancer Tungstenocenes with a Diverse Set of (O,O–), (O,S–) and (O,N–) Chelates—A Detailed Biological Study Using an Improved Evaluation via 3D Spheroid Models” (Pharmaceutics, 2023).
